Measurements as given in patent publication US11266707B2, “Nutraceuticals for the prevention, inhibition, and treatment of SARS-CoV-2 and associated COVID-19” (priority 2020, dated 2022).
Where two headings read alike, the source gives them in different places.

Legend:
[1] = test system: primary peritoneal macrophages; conditions: cited from earlier work
LPS-induced ARDS [2] = conditions: cited from earlier work
[3] = test system: LPS-challenged macrophages; conditions: pre-incubated 6 h with 0 to 50 μM, then LPS 24 h; cited from earlier work
[4] = 10 mg/kg intraperitoneally; 72 h after CL2P; cited from earlier work
[5] = test system: lipopolysaccharide-activated macrophages; conditions: cited from earlier work
[6] = cited from earlier work
[7] = 10 mg/kg intraperitoneally at 1 and 6 h after CL2P and every 12 h; 18 h; cited from earlier work
macrophage foam cells = conditions: pretreatment; cited from earlier work
LPS-induced ARDS [8] = conditions: cited from earlier work; remark: listed apart in the source
[9] = 10 mg/kg intravenously then 10 mg/kg/h infusion; cited from earlier work
[10] = cited from earlier work; remark: listed apart in the source
[11] = test system: lipopolysaccharide-induced inflammatory reactions; conditions: cited from earlier work
[12] = test system: sepsis induction with live Escherichia coli; conditions: cited from earlier work; for concentration of IL-1a: controls 1187.0±278.64, P<0.05
NK cell = assay: Pterostilbene given as nanostilbene to cancer patients: NK cell activity and interferon gamma; type: in vivo, human; conditions: administered in the form of nanostilbene in cancer patients
[13] = test system: interleukin-I, interleukin-6, interleukin-8, TNF-alpha; conditions: cited from earlier work
[14] = animal studies; cited from earlier work
[15] = test system: endothelium of atherosclerotic plaque; conditions: apoE(−/−) mice, injection; cited from earlier work
[16] = test system: human umbilical vein VECs (HUVECs); conditions: cited from earlier work
[17] = 50 mg/kg, LPS 5 mg/kg 3 days later
[18] = lung, serum, and bronchoalveolar lavage fluid

Compound: C[S+]([O-])CCCCN=C=S (stereo not shown) [sulforaphane, 1-isothiocyanato-4-(methylsulfinyl)-butane]
- HO-1 expression ([1]; LPS-stimulated Nrf2 (+/+) primary peritoneal macrophages): significantly augmented
- LPS-stimulated mRNA expression, protein expression and production of TNF-alpha, IL-1beta, COX-2 and iNOS ([1]; Nrf2 (+/+) primary peritoneal macrophages, pretreatment): potently inhibited
- anti-inflammatory effect ([1]; Nrf2 (−/−) primary peritoneal macrophages): attenuated
- serum levels of interleukin-6 (IL-6) (LPS-induced ARDS [2]; 50 mg/kg, ELISA): significantly decreased
- serum levels of tumor necrosis factor-a (TNF-a) (LPS-induced ARDS [2]; 50 mg/kg, ELISA): significantly decreased
- lactate dehydrogenase (LDH) activity (LPS-induced ARDS [2]; [17]): significantly decreased
- wet-to-dry ratio of the lungs (LPS-induced ARDS [2]; [17]): significantly decreased
- inducible nitric oxide synthase (iNOS) activity (LPS-induced ARDS [2]; 50 mg/kg): significantly inhibited
- prostaglandin E2 (PGE2) production (LPS-induced ARDS [2]; 50 mg/kg): significantly inhibited
- Nrf2/antioxidant response element (ARE) pathway (LPS-induced ARDS [2]; pre-treatment): activated
- cyclooxygenase-2 (COX-2) protein expression (LPS-induced ARDS [2]; western blot): significantly inhibited
- matrix metalloproteinase-9 (MMP-9) protein expression (LPS-induced ARDS [2]; western blot): significantly inhibited
- expression of NO and cytokines [3]: able to prevent

Compound: Epigallocatechin-3-Gallate [EGCG]
- survival [4]: significantly improved
- NO production ([5]; cells cotreated with EGCG and LPS): Inhibition
- disappearance of inhibitor kappaB from cytosolic fraction [5]: blocked
- activation of nuclear factor-kappaB ([5]; electrophoretic mobility shift assay): blocked
- lethal sepsis ([6]; first dose given 24 hours after cecal ligation and puncture): rescued
- lethal endotoxemia ([6]; intraperitoneal administration): protected
- systemic accumulation of HMGB1, IL-6 and KC ([6]; mouse, in vivo): attenuation
- hypotension (mean arterial blood pressure) [7]: significantly improved
- TNF-a-induced downregulation of ABCA1 and decrease in cholesterol efflux to apoA1 (macrophage foam cells): attenuated
- LPS-induced ARDS (LPS-induced ARDS [8]; 10 mg/kg ip 1 h before LPS 10 mg/kg ip): attenuated
- changes in blood gases (LPS-induced ARDS [8]; 10 mg/kg ip): decreased
- histological lesions (LPS-induced ARDS [8]; 10 mg/kg ip): reduced
- myeloperoxidase (MPO) activity (LPS-induced ARDS [8]; 10 mg/kg ip): reduced
- expression of IKB-a (LPS-induced ARDS [8]; lung tissue): increased
- expression of TLR-4, MyD88, TRIP, and p-p65 (LPS-induced ARDS [8]; lung tissue): alleviated
- expression of p65 (LPS-induced ARDS [8]; lung tissue): no influence
- expression of IL-6 (LPS-induced ARDS [8]; [18]): significantly decreased
- expression of interleukin (IL)-1′ (LPS-induced ARDS [8]; [18]): significantly decreased
- expression of tumor necrosis factor (TNF)-a (LPS-induced ARDS [8]; [18]): significantly decreased
- myeloperoxidase activity [9]: reduced
- myocardial damage [9]: reduced
- plasma IL-6 levels [9]: decreased
- plasma creatine phosphokinase levels [9]: decreased
- colonic tissue erosion ([10]; 50 and 100 mg/kg/day): attenuation
- HIF-1a and STAT3 protein expression in the colon ([10]; mouse, in vivo): decreasing
- plasma levels of IL-10 ([10]; mouse, in vivo): increasing
- plasma levels of TGF-1 ([10]; mouse, in vivo): increasing
- release of IL-6 ([10]; plasma): reduce
- release of IL-17 ([10]; plasma): reduce

Compound: CC1=CC(=O)C(C(C)C)=CC1=O [thymoquinone]
- lipopolysaccharide-induced inflammatory reactions [11]: suppressed effectively
- concentration of nitric oxide ([11]; marker of inflammation): reduced significantly
- concentration of IL-1a ([12]; 0.75 mg/kg dose): 310.8 ± 70.93 pg/mL
- IL-10 levels ([12]; 0.75 mg/kg, controls 5505.2±333.96, P<0.01): 2885.0 ± 553.98 pg/mL
- concentration of IL-1a ([12]; 1 mg/kg group): 428.3 ± 71.32 pg/mL
- levels of IL-2 ([12]; P value 0.0851): relatively lower
- levels of TNF-a ([12]; P value 0.1817): relatively lower
- reduced mortality ([12]; mice, sepsis models): 80-90%
- renal and hepatic biomarker profiles ([12]; mice, sepsis models): improved

Compound: trans-3,5-dimethoxy-4-hydroxystilbene [pterostilbene]
- NK cell activity (NK cell): increased
- interferon gamma production (NK cell): increased
- inflammatory cytokines associated with ARDS (interleukin-I, interleukin-6, interleukin-8, TNF-alpha) [13]: inhibit inflammatory cytokines
- bioavailability [14]: 80%
- number of TUNEL-positive cells in the endothelium of atherosclerotic plaque [15]: strongly decreased
- oxLDL-induced cell shrinkage, chromatin condensation, nuclear fragmentation, and cell apoptosis ([16]; HUVECs, oxLDL 200 μg/ml): protected against such injuries
- expression of lectin-like oxLDL receptor-I (LOX-1) ([16]; in vitro and in vivo): inhibited
